Assay results from article PMC10604610, “An Induced Pluripotent Stem Cell-Derived Human Blood–Brain Barrier (BBB) Model to Test the Crossing by Adeno-Associated Virus (AAV) Vectors and Antisense Oligonucleotides” (Biomedicines, 2023).

Assays:
[1] = system: iPSC-derived BMECs; settings: three iPSC-derived BMEC models (4603, 19-9-7T, AD3-CL1); Transwell polyester insert 0.4 μm pore, 900,000 cells/cm^2, 48 h culture; apical to basal; tracer 0.1 mg/mL in Ringer HEPES buffer pH 7.4; 37 °C, 60 min; fluorescence plate reader; mean of triplicate filters
[2] = system: hCMEC/D3 cells; settings: hCMEC/D3 on collagen I-coated Transwell polyester insert 0.4 μm pore, 900,000 cells/cm^2, 48 h; apical to basal; tracer 0.1 mg/mL in Ringer HEPES buffer pH 7.4; 37 °C, 60 min; fluorescence; mean of triplicate filters
[3] = system: undifferentiated iPSCs (4603); settings: undifferentiated iPSCs (4603) on collagen IV/fibronectin-coated Transwell insert, 900,000 cells/cm^2, 48 h; apical to basal; tracer 0.1 mg/mL in Ringer HEPES buffer pH 7.4; 37 °C, 60 min; fluorescence; mean of triplicate filters

Compound	% Permeability (percentage of tracer present in the basal chamber) [1]	% Permeability (percentage of tracer present in the basal chamber) [2]	% Permeability (percentage of tracer present in the basal chamber) [3]
O=C([O-])c1ccccc1-c1c2ccc(=O)cc-2oc2cc([O-])ccc12.[Na+].[Na+] [Na-F, sodium fluorescein]	about 5%	significantly higher than in iPSC-derived BMECs but significantly lower than that of control iPSCs	
lucifer yellow [LY]	Less than 2%	around 16%	around 16%
